Assays:
Assay type in all cases: in vivo, male Fischer 344 rats
GST-P-positive foci = assay: Analysis of GST-P-stained liver specimens (GST-P-positive foci); conditions: for Focal area (GST-P positive) / Number of foci (GST-P positive) / Number of foci, focal size 0-0.03 mm^2 / Number of foci, focal size 0.03-0.1 mm^2 / Number of foci, focal size 0.1-0.3 mm^2 / Number of foci, focal size 0.3-1.0 mm^2 / Number of foci, focal size 1.0-3.0 mm^2 / Number of foci, focal size 3.0-10.0 mm^2 / Number of foci, focal size 10.0-30.0 mm^2 / Number of foci, focal size 30.0-100.0 mm^2 / Number of foci, focal size 100.0- mm^2: eight weeks; for GST-P-positive foci, comparison between groups in words: group 4 vs group 2, groups 5, 6 vs group 3, groups 7, 8, 9 vs group 4
Method: (§1) To the animals in group 1, only a CRF-1 basal diet (Oriental Yest Co., Ltd., Tokyo) was fed. To the ones in group 2, only a CDAA (Dyets Inc., USA) diet was fed. The CDAA diet, whose composition is shown in Table 1, was fed from the day before the 1st administration day of DEN (day 1) and was stored under refrigeration until use. To the ones in group 3, a CRF-1 basal diet was fed and DEN was treated. The dose of DEN was set at 95 mg/kg body weight (2 ml/kg body weight) and rats were intraperitoneally treated once a week for the first three weeks (day 1, 8 and 15). To the ones in group 4, a CDAA diet was fed and DEN was treated. To the ones in group 5, a CRF-1 basal diet was fed and given DEN and PH. In the partial hepatectomy (PH), the left lobe and the right and left sublobes of the median lobe of the liver were excised. PH was carried out on the day before the first administration of PB (day 28). To the ones in group 6, a CRF-1 basal diet was fed and given DEN, PH, and PB. The dose of PB was set at 60 mg/kg body weight (2 ml/kg body weight) and rats were intraperitoneally treated three times a week from week 5 (day 29, 32, 34, 36, 39, 41, 43, 46, 48, 50, 53, and 55). To the ones in group 7, a CDAA diet was fed and given DEN and PH. To the ones in group 8, a CDAA diet was fed and given DEN and PB. To the ones in group 9, a CDAA diet was fed and given DEN, PH, and PB. This experiment was started on Apr. 10, 1997.
Immunohistochemical staining using polyclonal antibodies against GST-P was applied to facilitate quantitative evaluation of altered hepatocellular foci. Paraffin sections were stained immunohistochemically using the labeled streptavidin-biotin-peroxidase complex (LSAB) method for binding of rabbit anti-rat GST-Yp polyclonal antibody (1:1000; BIO PREP, IRELAND). The analytical procedure for the GST-P-stained specimens was as follows. Photographs (x10) of GST-P-stained specimens of whole cross-section of liver were taken. Photographs were jointed to construct complete cross-sectional image. GST-P-positive foci (hereinafter foci) were painted out with felt pen. Cross-sectional images were processed by Image Scanner (GT-6500, SEIKO EPSONCO., Ltd., Nagano) (using EpScan Mac). The area of each focus and total cross-sectional area of each image were measured using Adobe Photoshop and NIH image. Number of foci per unit area and focal area per unit area were calculated from data on number of foci, mean focal area, total focal area, and total organ area.
All examination data were statistically evaluated by F-t test. First, equal dispersion was tested by F test (significance level 5%). Student-t test was carried out where population variance was judged to be equal, and Welch-t test where it was judged different. Bilateral significance level was set at 5% and 1%.

liver = assay: Autopsy and histopathological examination of liver (H.E.-stained specimens); conditions: eight weeks; for Histopathological findings of H.E.-stained liver, in words: comparator group as stated in the value (groups 2 and 3: findings not observed in group 1 CRF-1)
Method: as §1
At eight weeks (day 60-63), autopsy was performed after the animals were sacrificed by exsanguination under ether anesthesia. After the liver had been excised and fixed in 10% neutral buffered formalin fixative, paraffin sections and H.E.-stained specimens were prepared and microscopic examination was carried out.

[1] = Survival, final body weight and liver weight, 8-week study (Experimental Example 1); conditions: mean ± spread; DEN 95 mg/kg i.p. day 1, 8, 15; PB 60 mg/kg i.p. three times a week from week 5; PH day 28
Method: The eighty six male 4-week-old Fischer 344 rats used in this study were obtained from Charles River Japan, Inc. (Kanagawa). Grouping of the rats was performed according to the latest body weight. The animals were housed, two/cage in a climate-controlled animal room at temperature of 24±3° C., relative humidity of 55±15%, and ventilation rate of 10-20 times/h with 12-hour illumination, and allowed free access to the prescribed diets in every group and tap water.
To the animals in group 1, only a CRF-1 basal diet (Oriental Yest Co., Ltd., Tokyo) was fed. To the ones in group 2, only a CDAA (Dyets Inc., USA) diet was fed. The CDAA diet, whose composition is shown in Table 1, was fed from the day before the 1st administration day of DEN (day 1) and was stored under refrigeration until use. To the ones in group 3, a CRF-1 basal diet was fed and DEN was treated. The dose of DEN was set at 95 mg/kg body weight (2 ml/kg body weight) and rats were intraperitoneally treated once a week for the first three weeks (day 1, 8 and 15). To the ones in group 4, a CDAA diet was fed and DEN was treated. To the ones in group 5, a CRF-1 basal diet was fed and given DEN and PH. In the partial hepatectomy (PH), the left lobe and the right and left sublobes of the median lobe of the liver were excised. […]
All examination data were statistically evaluated by F-t test. […]

SMILES | Focal area (GST-P positive) (GST-P-positive foci) [CT mm^2/mm^2Liver] | Number of foci (GST-P positive) (GST-P-positive foci) | Number of foci, focal size 0-0.03 mm^2 (GST-P-positive foci) | Number of foci, focal size 0.03-0.1 mm^2 (GST-P-positive foci) [CT /mm^2Liver] | Number of foci, focal size 0.1-0.3 mm^2 (GST-P-positive foci) | Number of foci, focal size 0.3-1.0 mm^2 (GST-P-positive foci) [CT /mm^2Liver] | Number of foci, focal size 1.0-3.0 mm^2 (GST-P-positive foci) | Number of foci, focal size 3.0-10.0 mm^2 (GST-P-positive foci) | Number of foci, focal size 10.0-30.0 mm^2 (GST-P-positive foci) | Number of foci, focal size 30.0-100.0 mm^2 (GST-P-positive foci) | Number of foci, focal size 100.0- mm^2 (GST-P-positive foci) | GST-P-positive foci, comparison between groups in words (GST-P-positive foci) | Histopathological findings of H.E.-stained liver, in words (liver) | Body weight (day 57) [1] | Altered hepatocellular foci, number of animals by grade (±, +, 2+, 3+) (liver; H.E.-stained liver) | Vacuolar degeneration, number of animals by grade (±, +, 2+, 3+) (liver; H.E.-stained liver)
CCN(CC)N=O [CRF-1+DEN, Diethylnitrosoamine] | 0.006 ± 0.002 | 0.350 ± 0.083 CT /mm^2Liver | 0.312 ± 0.070 CT /mm^2Liver | 0.035 ± 0.021 | 0.003 ± 0.005 CT /mm^2Liver | 0.000 ± 0.000 | 0.000 ± 0.000 CT /mm^2Liver | 0.000 ± 0.000 CT /mm^2Liver | 0.000 ± 0.000 CT /mm^2Liver | 0.000 ± 0.000 CT /mm^2Liver | 0.000 ± 0.000 CT /mm^2Liver | foci were observed | slight vacuolar degeneration and altered hepatocellular foci | 257.52 ± 5.11 CT g | – | –
CCN(CC)N=O [CRF-1+DEN+PH, Diethylnitrosoamine] | 0.015 ± 0.006 | 0.467 ± 0.162 . CT /mm^2Liver | 0.335 ± 0.124 . CT /mm^2Liver | 0.105 ± 0.030 | 0.023 ± 0.014 . CT /mm^2Liver | 0.003 ± 0.002 | 0.000 ± 0.000 . CT /mm^2Liver | 0.000 ± 0.000 . CT /mm^2Liver | 0.000 ± 0.000 . CT /mm^2Liver | 0.000 ± 0.000 . CT /mm^2Liver | 0.000 ± 0.000 . CT /mm^2Liver | focal areas were elevated | altered hepatocellular foci were more marked than in group 3 (CRF-1+DEN) | 263.85 ± 3.96 ** * g | 4 | 4

— US20020062491A1, “Method of producing primary hepatocellular carcinoma-bearing model animals” (WELFIDE CORPORATION, priority 2000, published 2002)
